From article PMC12062022, “Chromene flavanones from Dalea boliviana as xanthine oxidase inhibitors: in vitro biological evaluation and molecular docking studies” (Frontiers in Pharmacology, 2025)

Biological target: T1, xanthine oxidase (Bos taurus, UniProt P80457)
T1 construct: gene XDH
Test: spectrophotometric assay of uric acid formation at […] nm, bovine milk enzyme
Type: biochemical
Conditions: read-out: IC50 (nM) ± SEM

T1 sequence (P80457 2-1332): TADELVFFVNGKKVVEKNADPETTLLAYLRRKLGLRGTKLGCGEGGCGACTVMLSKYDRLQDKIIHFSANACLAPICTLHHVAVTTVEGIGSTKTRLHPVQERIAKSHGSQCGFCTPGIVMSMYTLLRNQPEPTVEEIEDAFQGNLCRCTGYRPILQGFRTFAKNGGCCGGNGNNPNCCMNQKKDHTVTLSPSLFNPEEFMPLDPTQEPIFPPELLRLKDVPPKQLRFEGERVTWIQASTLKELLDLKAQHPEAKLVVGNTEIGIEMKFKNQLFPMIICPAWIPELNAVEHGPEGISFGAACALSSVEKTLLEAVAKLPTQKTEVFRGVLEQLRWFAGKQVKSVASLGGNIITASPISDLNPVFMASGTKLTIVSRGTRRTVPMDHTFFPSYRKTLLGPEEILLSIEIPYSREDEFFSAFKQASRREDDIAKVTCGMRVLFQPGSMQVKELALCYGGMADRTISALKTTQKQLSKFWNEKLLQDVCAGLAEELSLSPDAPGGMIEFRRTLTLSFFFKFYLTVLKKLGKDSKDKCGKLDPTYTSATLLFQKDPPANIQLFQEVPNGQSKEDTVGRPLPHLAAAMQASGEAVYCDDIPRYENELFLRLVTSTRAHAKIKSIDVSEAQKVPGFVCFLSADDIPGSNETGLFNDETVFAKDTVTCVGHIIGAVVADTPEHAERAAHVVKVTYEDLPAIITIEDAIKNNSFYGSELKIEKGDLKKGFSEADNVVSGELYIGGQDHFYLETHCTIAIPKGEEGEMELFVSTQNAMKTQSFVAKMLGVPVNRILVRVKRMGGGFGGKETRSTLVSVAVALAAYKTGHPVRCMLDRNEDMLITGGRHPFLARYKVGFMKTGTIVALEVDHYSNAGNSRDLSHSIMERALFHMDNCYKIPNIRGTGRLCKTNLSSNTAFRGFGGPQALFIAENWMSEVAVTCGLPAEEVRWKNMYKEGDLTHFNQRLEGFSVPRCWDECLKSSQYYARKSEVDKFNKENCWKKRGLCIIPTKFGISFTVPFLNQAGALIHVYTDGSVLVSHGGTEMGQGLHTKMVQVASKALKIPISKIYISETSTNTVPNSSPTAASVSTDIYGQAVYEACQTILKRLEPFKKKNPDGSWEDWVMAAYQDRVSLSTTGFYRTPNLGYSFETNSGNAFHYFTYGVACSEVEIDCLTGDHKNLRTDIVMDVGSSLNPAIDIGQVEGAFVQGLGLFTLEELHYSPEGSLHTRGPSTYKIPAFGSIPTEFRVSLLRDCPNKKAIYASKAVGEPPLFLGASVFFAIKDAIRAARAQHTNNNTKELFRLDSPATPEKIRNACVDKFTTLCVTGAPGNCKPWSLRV

IC50	Structure (SMILES)
0.5 nM	CC1(C)C=Cc2c(cc(O)c3c2OC(c2ccccc2O)CC3=O)O1 (stereo in doubt) [compound 1, (2S) 5,2′-dihydroxy-6″,6″-dimethylchromeno-(7,8:2″,3″)-flavanone]
1.7 nM	CC(C)=CCc1cccc(C2CC(=O)c3c(O)cc4c(c3O2)C=CC(C)(C)O4)c1O (stereo in doubt) [compound 2, (2S) 5,2′-dihydroxy-6″,6″-dimethylchromeno-(7,8:2″,3″)-3′-prenylflavanone]
